From PMC10165273, “Itch receptor MRGPRX4 interacts with the receptor activity–modifying proteins” (The Journal of Biological Chemistry, 2023)
Where “and” joins values, the source holds several entries; their conditions need not be identical. Identical values can stand only once. Like-named read-outs stand apart in the source and are kept apart here.

How the values were obtained:
MRGPRX4 [1] = target: T1, MRGPRX4 (Homo sapiens, UniProt Q96LA9); experiment: BRET2 β-arrestin2 recruitment to MRGPRX4; type: cell-based; conditions: for BRET2 ratio: Fig 5c, MRGPRX4, 100μM ligand, listed as Ng
T1 construct: expressed in transfected cells; host or cells: HEK293T
From the text: (§1) The method for homogenous transfection of β-Arrestin and BRET^2 assay of β-Arrestin recruitment has been described previously ([51]). […] BRET^2 measurements were taken on the BioTek Synergy NEO2 microplate reader.
(§2) For MRGPRX4 DNA titration assays, HEK293T cells were cotransfected with either β-Arrestin1 or β-Arrestin2 with increasing amounts of MRGPRX4 (0.5, 1, or 2 pg/cell).
(§3) To measure the time-course of β-Arrestin2 recruitment to MRGPRX4 and CALCRL, the transfection and general procedure described above was followed, with the modification that Prolume Purple was added first, followed by addition of the appropriate agonists ([51]).
(§4) The BRET ratio for each sample was determined by calculating the ratio of the light intensity emitted by the GFP10 (515 nm) (acceptor) over the light intensity emitted by the RLuc3 (395 nm) (donor). Net BRET^2 was determined by subtracting the basal BRET^2 (β-arrestin-RLuc3 only) signal from the BRET^2 signals. All BRET values were normalized to the MRGPRX4-only condition.

mock (βArr2) = experiment: BRET2 β-arrestin2 recruitment, mock-transfected cells; type: cell-based, human; conditions: 100µM Ng
MRGPRX4 [2] = tested on: MRGPRX4; design: method as in Cao et al. [23]; conditions: ref Cao et al. [23]; read-out: Ca2+ flux EC50; cited from earlier work
MRGPRX4 + RAMP2 = target: T2, MRGPRX4 + RAMP2 (Homo sapiens, UniProt Q96LA9); experiment: BRET2 β-arrestin2 recruitment, MRGPRX4 with RAMP2; type: cell-based; conditions: for BRET2 ratio, time course (Figure 5e): MRGPRX4 + RAMP2 100μM Ng, listed as Ng
T2 construct: expressed in transfected cells; host or cells: HEK293T
Experimental: as §1, §3, §4

MRGPRX4 [3] = target: T1, MRGPRX4; experiment: BRET2 β-arrestin1 recruitment to MRGPRX4; type: cell-based; conditions: for net BRET2 ratio, βArr1 recruitment: Fig 5a, 100µM ligand, replicate values, listed as Ng
Experimental: as §1, §2, §4

MRGPRX4 [4] = tested on: MRGPRX4; design: method as in PMID 25895059; conditions: ref [10]; read-out: phosphatidylinositol hydrolysis EC50; cited from earlier work
MRGPRX4 + RAMP3 [5] = target: T3, MRGPRX4 + RAMP3 (Homo sapiens, UniProt Q96LA9); experiment: BRET2 β-arrestin2 recruitment, MRGPRX4 with RAMP3; type: cell-based
T3 construct: expressed in transfected cells; host or cells: HEK293T
Experimental: as §1, §4

MRGPRX4 + RAMP3 [6] = target: T3, MRGPRX4 + RAMP3; experiment: IP1 accumulation, MRGPRX4 coexpressed with RAMP3; type: cell-based; design: key: % IP1; unstimulated mock = 0%, fully stimulated MRGPRX4 = 100%; conditions: Figure 4c-f; agonist 100µM; X4:ramp3 1:2; MRGPRX4 = 100
[7] = MRGPRX4-GFP10 BRET2 time-course, 100 µM (Fig. 5)

T3 sequence (Q96LA9 whole entry): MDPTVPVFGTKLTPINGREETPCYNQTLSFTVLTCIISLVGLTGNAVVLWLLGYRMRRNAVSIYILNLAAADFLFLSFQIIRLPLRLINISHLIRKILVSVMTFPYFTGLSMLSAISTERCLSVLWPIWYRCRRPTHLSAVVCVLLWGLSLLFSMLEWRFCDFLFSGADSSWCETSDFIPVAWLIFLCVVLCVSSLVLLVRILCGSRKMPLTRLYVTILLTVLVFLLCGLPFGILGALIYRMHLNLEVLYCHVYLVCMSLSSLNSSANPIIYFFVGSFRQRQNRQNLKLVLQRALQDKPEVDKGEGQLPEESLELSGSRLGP
T2 sequence (Q96LA9 whole entry): as above
T1 sequence (Q96LA9 whole entry): as above

With CC(C)[C@H]1CC[C@H](C(=O)N[C@H](Cc2ccccc2)C(=O)O)CC1 [Nateglinide] the BRET2 ratio (MRGPRX4 [1]; 840 s) was 0.01493 and 0.01394 and 0.01155, the BRET2 ratio (MRGPRX4 [1]; 900 s) was 0.01482 and 0.01445 and 0.01282 and the BRET2 ratio (MRGPRX4 [1]; 960 s) was 0.01446 and 0.01322 and 0.01117. For the same compound, the BRET2 ratio (MRGPRX4 [1]; 1020 s) was 0.01461 and 0.01265 and 0.01275, the BRET2 ratio (MRGPRX4 [1]; 1080 s) was 0.01404 and 0.01402 and 0.01514 and the BRET2 ratio (MRGPRX4 [1]; 1140 s) was 0.01394 and 0.01316 and 0.01206. For the same compound, the BRET2 ratio (MRGPRX4 [1]; 1200 s) was 0.01452 and 0.0141 and 0.01263, the BRET2 ratio (MRGPRX4 [1]; 1260 s) was 0.01409 and 0.01389 and 0.01057 and the BRET2 ratio (MRGPRX4 [1]; 1320 s) was 0.01336 and 0.01334 and 0.0149. For the same compound, the BRET2 ratio (MRGPRX4 [1]; 1380 s) was 0.01171 and 0.01208 and 0.01329, the “normalized β-arrestin2 recruitment BRET2 signal (Figure 5f)” value (MRGPRX4 [1]; MRGPRX4, 100μM Ng) was 1 and the Kfast (MRGPRX4 [1]; [7]) was 0.008519. For the same compound, the Kslow (MRGPRX4 [1]; [7]) was 0.002534, the Rate constant ratio (MRGPRX4 [1]; [7]) was 3.361 and the “Tau (fast)” value (MRGPRX4 [1]; [7]) was 117.4. The “Tau (slow)” value (MRGPRX4 [1]; [7]) was 394.6, the “two-phase decay Plateau” value (MRGPRX4 [1]; [7]) was 0.004639 and the “two-phase decay x0” value (MRGPRX4 [1]; [7]) was 56.70. For the same compound, the “two-phase decay y0” value (MRGPRX4 [1]; [7]) was 0.01291, the “time of peak β-arrestin2 recruitment to MRGPRX4” value (MRGPRX4 [1]; time course (Fig. 5C)) was 3 min and the “β-arrestin recruitment BRET2 signal (Figure 5d)” value (mock (βArr2)) was -0.01563. The EC50 (MRGPRX4 [2]) was 4.72 µM, the “BRET2 ratio, time course (Figure 5e)” value (MRGPRX4 + RAMP2; 60 seconds) was 0.009668 and 0.00973 and 0.009697 and the “BRET2 ratio, time course (Figure 5e)” value (MRGPRX4 + RAMP2; 120 seconds) was 0.01023 and 0.01 and 0.01054. For the same compound, the “BRET2 ratio, time course (Figure 5e)” value (MRGPRX4 + RAMP2; 180 seconds) was 0.01074 and 0.009771 and 0.01057, the “BRET2 ratio, time course (Figure 5e)” value (MRGPRX4 + RAMP2; 240 seconds) was 0.01008 and 0.0101 and 0.01015 and the “BRET2 ratio, time course (Figure 5e)” value (MRGPRX4 + RAMP2; 300 seconds) was 0.009689 and 0.009979 and 0.01017. The “BRET2 ratio, time course (Figure 5e)” value (MRGPRX4 + RAMP2; 360 seconds) was 0.009793 and 0.009837 and 0.01091, the “BRET2 ratio, time course (Figure 5e)” value (MRGPRX4 + RAMP2; 420 seconds) was 0.009697 and 0.01031 and 0.01076 and the “BRET2 ratio, time course (Figure 5e)” value (MRGPRX4 + RAMP2; 480 seconds) was 0.00993 and 0.009604 and 0.009499. The “BRET2 ratio, time course (Figure 5e)” value (MRGPRX4 + RAMP2; 540 seconds) was 0.00961 and 0.009808 and 0.01044, the “BRET2 ratio, time course (Figure 5e)” value (MRGPRX4 + RAMP2; 600 seconds) was 0.01026 and 0.01047 and 0.00952 and the “BRET2 ratio, time course (Figure 5e)” value (MRGPRX4 + RAMP2; 660 seconds) was 0.009244. For the same compound, the “decrease in β-arrestin2 recruitment upon nateglinide treatment” value (MRGPRX4 + RAMP2; RAMP2 coexpression vs MRGPRX4 alone (Fig. 5F)) was 73%, the “β-arrestin1 recruitment to MRGPRX4” value (MRGPRX4 [3]; 100 μM agonist (Fig. 5A)) was “very low β-arrestin1 recruitment” and the “net BRET2 ratio, βArr1 recruitment” value (MRGPRX4 [3]; MRGPRX4 20ng, 0.5 pg DNA/cell) was 0.001598 and 0.001911 and 0.001766 and 0.001511 and 0.001907 and 0.001761 and 0.001482 and 0.001441 and 0.001223 and 0.001859 and 0.001157 and 0.001231 and 0.00136 and 0.0008839 and 0.000388 and 0.001053 and 0.001203 and 0.000951 and 0.0007681 and 0.0005323 and 0.0008933 and 0.0008719 and 0.001239 and 0.001046 and 0.001091. The “net BRET2 ratio, βArr1 recruitment” value (MRGPRX4 [3]; MRGPRX4 40ng, 1 pg DNA/cell) was 0.001875 and 0.002517 and 0.002385 and 0.001913 and 0.002075 and 0.001709 and 0.001872 and 0.002414 and 0.002488 and 0.001826 and 0.002129 and 0.001258 and 0.0007412 and 0.002042 and 0.001771 and 0.001548 and 0.001966 and 0.0009568 and 0.001828 and 0.001183 and 0.001043 and 0.001073 and 0.0007023 and 0.00193 and 0.002589 and 0.001421 and 0.00209, the “net BRET2 ratio, βArr1 recruitment” value (MRGPRX4 [3]; MRGPRX4 80ng, 2 pg DNA/cell) was 0.002996 and 0.002474 and 0.002377 and 0.001821 and 0.003223 and 0.002725 and 0.001839 and 0.003232 and 0.002812 and 0.002723 and 0.003057 and 0.001936 and 0.00205 and 0.002139 and 0.001864 and 0.00174 and 0.001944 and 0.002317 and 0.002724 and the “net BRET2 ratio, βArr1 recruitment” value (MRGPRX4 [3]; βArr1 only, 0 pg MRGPRX4 DNA/cell) was 0.0003439 and -7.335e-5 and -0.0002706 and -9.392e-5 and -0.0001296 and 0.0002236 and -2.118e-6 and -0.0001045 and 0.0001067 and 0.000324 and -0.0001421 and -0.0001819 and 0.0002245 and -0.0001005 and -0.000124 and -9.463e-5 and 0.0003743 and -0.0002797 and -0.0002549 and 6.253e-5 and 0.0001923 and 0.0001254 and -0.000481 and 0.0003557 and 0.0001817 and -2.148e-5 and -0.0001602. The EC50 (MRGPRX4 [4]) was 2.1 µM, the “normalized β-arrestin2 recruitment BRET2 signal (Figure 5f)” value (MRGPRX4 + RAMP3 [5]; MRGPRX4 + RAMP3, 100μM Ng, listed as Ng) was 0.6122 and 0.604 and 0.6466 and 0.7957 and the “attenuation of β-arrestin2 recruitment upon nateglinide treatment” value (MRGPRX4 + RAMP3 [5]; RAMP3 coexpression vs MRGPRX4 alone (Fig. 5F)) was 34%. For the same compound, the “response to agonist, X4:ramp3.I:2” value (MRGPRX4 + RAMP3 [6]) was 54.9628 and 57.8528.
